For two molecules, IC50 and clinical benefit results are on record in patent US20190292605A1, “Biomarkers of Response to Cyclin D-CDK4/6 Targeted Therapies in Cancer” (The Regents of the University of California, priority 2014, published 2019).

Read-outs that look alike come from different tables or passages of the source. Some results are limits rather than exact numbers.

For test [1], the system named is 17 gastric and 27 colon cancer cell lines. Kind of test: dose response in gastric and colon cancer cell line panels. The format is cell-based. The note with it: Homo sapiens; 14 of the 44 gastric and colon cancer cell lines tested; read-out: anti-proliferative activity (concentration). As to the method: Methods: Panels of 17 gastric and 27 colon cancer cell lines were exposed in vitro to palbociclib over various concentrations to generate dose response curves. Analysis of variance (ANOVA) was used to identify differentially expressed genes between sensitive and resistant cell lines. Genes identified by ANOVA and effects of palbociclib on pRB were analyzed via western blot.

For test [2], the system named is human melanoma cell lines. Kind of test: response to palbociclib treatment in 48 melanoma cell lines. The format is cell-based. The source says: Melanoma, a malignancy originating in pigment-producing melanocytes, is generally resistant to conventional treatments such as radiotherapy or chemotherapy. Molecular targeted therapeutics against BRAF and MEK have shown marked efficacy for patients with metastatic melanoma. However these targeted therapies have a limited duration of response. […] Our main goal in this study was to evaluate the therapeutic potential of palbociclib in a large panel of human melanoma cell lines to identify potential biomarkers of sensitivity and resistance. Material and Methods: We evaluated the response palbociclib treatment in 48 melanoma cell lines. A comprehensive biomarker screen was performed using mutation and gene expression (Agilent) data. The mechanism of action of the drug, phospho-Rb and senescence, was investigated by western blot (WB) analysis. Effects on the cell cycle and apoptosis were study by flow cytometry.

A further test concerns colon cancer. Particulars: patients; cited from earlier work.

For the molecule `CC(=O)c1c(C)c2cnc(Nc3ccc(N4CCNCC4)cn3)nc2n(C2CCCC2)c1=O` [palbociclib], the IC50 in test [1] was < 0.15 µM; in test [2] (48 melanoma cell lines, read-out: IC50, lower end of range across melanoma cell lines), 0.028 µM; in test [2] (48 melanoma cell lines, read-out: IC50, upper end of range across melanoma cell lines), > 1 µM; in test [2] (subset (14/48) of melanoma cell lines, clinically achievable concentrations, read-out: IC50 of cell lines classified as sensitive), < 0.15 µM.

With `CCN1CCN(Cc2ccc(Nc3ncc(F)c(-c4cc(F)c5nc(C)n(C(C)C)c5c4)n3)nc2)CC1` [LY2835219], in the test on colon cancer, the clinical benefit entry is reported as “beneficial in colon cancer”.
